Experimental findings from patent US10781184B2, “Substituted benzazinones as antibacterial compounds” (GlaxoSmithKline Intellectual Property Development Limited, priority 2015, dated 2020) are described below.

Converted amounts (≈) assume the structure as drawn. Structures can show the parent of a compound that is named as a salt. Where two headings read alike, the source gives them in different places. Where only a bound is given, the exact number is not on record here.

Holding throughout (experiment): Minimum Inhibitory Concentration Assay (broth microdilution, CLSI)
Format in all cases: cell-based
(In general: Broth dilution looks for growth in wells or tubes with falling amounts of substance.)

In assay [1] the test system is E. coli 7623. How it is done: (§1) Methods for dilution Antimicrobial Susceptibility TestS for Bacteria that Grow Aerobically; Approved Standard-Ninth Edition; M7-A9, Vol. 32 No. 2, Clinical and Laboratory Standards Institute, Wayne, Pa.; January 2012.
(§2) Performance Standards for Antimicrobial Susceptibility Testing; Twenty-Second Informational Supplement; M100-S22 Vol. 32 No. 3; Clinical and Laboratory Standards Institute, Wayne, Pa., January 2012.
(§3) Broth microdilution was performed in accordance with the CLSI recommended procedures for aerobic bacteria [CLSI, 2012].
(§4) Comparator compound stock solutions were prepared as recommended by CLSI [CLSI, 2012]. The stock solutions of novel GSK compounds were prepared at 512 mcg/mL by dissolving the compounds in dimethyl sulfoxide (DMSO) and diluting 1:10 with sterile water. The 512 mcg/mL stock was further serially diluted in the recommended broth media for the organisms being tested. Final DMSO concentration in test wells was less than 1%.
(§5) Microtitre plates were prepared using the Microlab STAR™ (Hamilton Co., Reno, Nev.) to add media (50 μL) and the Microlab AT Plus system (Hamilton Co., Reno, Nev.) to serially dilute the compounds (final concentration range 0.125 to 128 mcg/mL) and to add inoculum. A positive growth control well containing medium and the test isolate was included on each microtitre plate. Ten microliters of the test medium from the positive growth control well was plated to determine the purity of each test isolate. A microtitre mirror reader (Cooke Instruments, Ltd., England) was used to assist in determining the microdilution MIC endpoints. The MIC was determined as the lowest concentration of compound that inhibited visible growth of the organism.

In assay [2] the test system is K. pneumoniae 1161486. How it is done:
as §1, §2, §3, §4, §5

The subject of assay [3] is P. aeruginosa PA01. The following applies: Pseudomonas aeruginosa. How it is done:
as §1, §2, §3, §4, §5

Setting [4] is: Escherichia coli, strain 7623, broth microdilution, read-out: E. coli 7623 MIC.
[5] abbreviates: Klebsiella pneumoniae, strain 1161486, broth microdilution, read-out: K. pneumoniae 1161486 MIC.
The mark [6] stands for this setting: strain PA01, broth microdilution, read-out: P. aeruginosa PA01 MIC.
The mark [7] stands for this setting: Escherichia coli, 7623, read-out: E. coli 7623 MIC (ug/mL).
[8] abbreviates: Klebsiella pneumoniae, 1161486, read-out: K. pneumoniae 1161486 MIC (ug/mL).
The mark [9] stands for this setting: PA01, read-out: P. aeruginosa PA01 MIC (ug/mL).

Turning to `C[C@@](CCn1cnc2cc(-c3ccccc3)ccc2c1=O)(C(=O)NO)S(C)(=O)=O` [Example 1, (R)—N-hydroxy-2-methyl-2-(methylsulfonyl)-4-(4-oxo-7-phenylquinazolin-3(4H)-yl)butanamide], the values for the MIC in assay [1] (setting [4]), in assay [2] (setting [5]) and in assay [3] (setting [6]) were 0.5 µg/mL (≈ 1.2 µM), 0.25 µg/mL (≈ 0.602 µM) and 1 µg/mL (≈ 2.41 µM), respectively.
For `Cc1ccc(-c2ccc3c(=O)n(CC[C@](C)(C(=O)NO)S(C)(=O)=O)cnc3c2)cc1` [Example 2, (R)—N-hydroxy-2-methyl-2-(methylsulfonyl)-4-(4-oxo-7-(p-tolyl)quinazolin-3(4H)-yl)butanamide], the MIC was 0.06 µg/mL (≈ 0.14 µM) in assay [1] (setting [4]), 0.125 µg/mL (≈ 0.291 µM) in assay [2] (setting [5]) and 0.5 µg/mL (≈ 1.16 µM) in assay [3] (setting [6]).
In the case of `CN(C)c1ccc(-c2ccc3c(=O)n(CC[C@](C)(C(=O)NO)S(C)(=O)=O)cnc3c2)cc1` [Example 4, (R)-4-(7-(4-(dimethylamino)phenyl)-4-oxoquinazolin-3(4H)-yl)-N-hydroxy-2-methyl-2-(methylsulfonyl)butanamide Trifluoroacetic Acid Salt], the results for the MIC in assay [1] (setting [7]), in assay [2] (setting [8]) and in assay [3] (setting [9]) were at most 0.03 µg/mL, 0.25 µg/mL and 8 µg/mL, respectively.
Regarding `C[C@@](CCn1cnc2cc(-c3ccc(OC(F)F)cc3)ccc2c1=O)(C(=O)NO)S(C)(=O)=O` [Example 5, (R)-4-(7-(4-(difluoromethoxy)phenyl)-4-oxoquinazolin-3(4H)-yl)-N-hydroxy-2-methyl-2-(methylsulfonyl)butanamide], the MIC in assay [1] (setting [4]) was at most 0.03 µg/mL; in assay [2] (setting [5]), 0.06 µg/mL (≈ 0.125 µM); in assay [3] (setting [6]), 2 µg/mL (≈ 4.15 µM).
As for `C[C@@](CCn1cnc2cc(-c3cccc(F)c3F)ccc2c1=O)(C(=O)NO)S(C)(=O)=O` [Example 6, (R)-4-(7-(2,3-difluorophenyl)-4-oxoquinazolin-3(4H)-yl)-N-hydroxy-2-methyl-2-(methylsulfonyl)butanamide], the results for the MIC in assay [1] (setting [4]), in assay [2] (setting [5]) and in assay [3] (setting [6]) were at most 0.032 µg/mL, 0.125 µg/mL (≈ 0.277 µM) and 0.5 µg/mL (≈ 1.11 µM), respectively.
Regarding `C[C@@](CCn1cnc2cc(-c3cc(F)ccc3F)ccc2c1=O)(C(=O)NO)S(C)(=O)=O` [Example 7, (R)-4-(7-(2,5-difluorophenyl)-4-oxoquinazolin-3(4H)-yl)-N-hydroxy-2-methyl-2-(methylsulfonyl)butanamide], the MIC in assay [1] (setting [4]) is 0.06 µg/mL (≈ 0.133 µM); in assay [2] (setting [5]) it was 0.25 µg/mL (≈ 0.554 µM); in assay [3] (setting [6]) it was 2 µg/mL (≈ 4.43 µM).
As to `C[C@@](CCn1cnc2cc(-c3ccccc3F)ccc2c1=O)(C(=O)NO)S(C)(=O)=O` [Example 8, (R)-4-(7-(2-fluorophenyl)-4-oxoquinazolin-3(4H)-yl)-N-hydroxy-2-methyl-2-(methylsulfonyl)butanamide], the results for the MIC in assay [1] (setting [4]), in assay [2] (setting [5]) and in assay [3] (setting [6]) were at most 0.03 µg/mL, 0.125 µg/mL (≈ 0.288 µM) and 0.5 µg/mL (≈ 1.15 µM), respectively.
Take `Cc1ccc(-c2ccc3c(=O)n(CC[C@](C)(C(=O)NO)S(C)(=O)=O)cnc3c2)cc1F` [Example 9, (R)-4-(7-(3-fluoro-4-methylphenyl)-4-oxoquinazolin-3(4H)-yl)-N-hydroxy-2-methyl-2-(methylsulfonyl)butanamide]: the results for the MIC in assay [1] (setting [4]), in assay [2] (setting [5]) and in assay [3] (setting [6]) were at most 0.03 µg/mL, 0.125 µg/mL (≈ 0.279 µM) and 8 µg/mL (≈ 17.9 µM), respectively.
For `C[C@@](CCn1cnc2cc(-c3ccc(C(F)F)cc3)ccc2c1=O)(C(=O)NO)S(C)(=O)=O` [Example 10, (R)-4-(7-(4-(difluoromethyl)phenyl)-4-oxoquinazolin-3(4H)-yl)-N-hydroxy-2-methyl-2-(methylsulfonyl)butanamide], in that order: 0.06 µg/mL (≈ 0.129 µM), 0.25 µg/mL (≈ 0.537 µM) and 1 µg/mL (≈ 2.15 µM).
With `Cc1ccc(-c2cc3ncn(CC[C@](C)(C(=O)NO)S(C)(=O)=O)c(=O)c3cc2F)cc1` [Example 15, (2R)-4-[6-fluoro-7-(4-methylphenyl)-4-oxo-3,4-dihydroquinazolin-3-yl]-N-hydroxy-2-methanesulfonyl-2-methylbutanamide], the MIC in assay [1] (setting [4]) is under 0.03 µg/mL; in assay [2] (setting [5]) it was 0.063 µg/mL (≈ 0.141 µM); in assay [3] (setting [6]) it was 0.5 µg/mL (≈ 1.12 µM).
For the compound `COc1ccc(-c2cc(F)c3c(=O)n(CC[C@](C)(C(=O)NO)S(C)(=O)=O)cnc3c2)cc1` [Example 16, (2R)-4-[5-fluoro-7-(4-methoxyphenyl)-4-oxo-3,4-dihydroquinazolin-3-yl]-N-hydroxy-2-methanesulfonyl-2-methylbutanamide], the MIC in assay [1] (setting [4]) was determined as 0.25 µg/mL (≈ 0.539 µM); in assay [2] (setting [5]) it was 1 µg/mL (≈ 2.16 µM); in assay [3] (setting [6]) it was 8 µg/mL (≈ 17.3 µM).
Regarding `Cc1ccc(-c2ccc3c(=O)n(CC[C@](C)(C(=O)NO)S(C)(=O)=O)nnc3c2)cc1` [Example 18, (2R)—N-hydroxy-2-methanesulfonyl-2-methyl-4-[7-(4-methylphenyl)-4-oxo-3,4-dihydro-1,2,3-benzotriazin-3-yl]butanamide], the MIC in assay [1] (setting [4]) amounted to 0.5 µg/mL (≈ 1.16 µM); in assay [2] (setting [5]), 1 µg/mL (≈ 2.32 µM); in assay [3] (setting [6]), 16 µg/mL (≈ 37.2 µM).
Take `Cc1ccc(-c2ccc3c(=O)n(CC[C@](C)(C(=O)NO)S(C)(=O)=O)nnc3c2)c(F)c1` [Example 19, (2R)-4-[7-(2-fluoro-4-methylphenyl)-4-oxo-3,4-dihydro-1,2,3-benzotriazin-3-yl]-N-hydroxy-2-methanesulfonyl-2-methylbutanamide]: the MIC in assay [1] (setting [4]) amounted to 0.125 µg/mL (≈ 0.279 µM); in assay [2] (setting [5]), 0.25 µg/mL (≈ 0.557 µM); in assay [3] (setting [6]), 8 µg/mL (≈ 17.8 µM).
Turning to `C[C@@](CCn1cnc2cc(-c3ccc(CN4CCOCC4)cc3)c(F)cc2c1=O)(C(=O)NO)S(C)(=O)=O` [Example 20, (R)-4-(6-fluoro-7-(4-(morpholinomethyl)phenyl)-4-oxoquinazolin-3(4H)-yl)-N-hydroxy-2-methyl-2-(methylsulfonyl)butanamide hydrochloride], the MIC came out at 0.125 µg/mL in assay [1] (setting [7]), 0.25 µg/mL in assay [2] (setting [8]) and 4 µg/mL in assay [3] (setting [9]).
For the compound `C[C@@](CCn1cnc2cc(-c3ccc(CCN4CCOCC4)cc3)c(F)cc2c1=O)(C(=O)NO)S(C)(=O)=O` [Example 21, (2R)-4-(6-fluoro-7-{4-[2-(morpholin-4-yl)ethyl]phenyl}-4-oxo-3,4-dihydroquinazolin-3-yl)-N-hydroxy-2-methanesulfonyl-2-methylbutanamide], the MIC in assay [1] (setting [4]) is 0.063 µg/mL (≈ 0.115 µM); in assay [2] (setting [5]) it was 0.5 µg/mL (≈ 0.915 µM); in assay [3] (setting [6]) it was 4 µg/mL (≈ 7.32 µM).
As to `CN(Cc1ccc(-c2cc3ncn(CC[C@](C)(C(=O)NO)S(C)(=O)=O)c(=O)c3cc2F)cc1)C1CC1` [Example 22, (2R)-4-[7-(4-{[cyclopropyl(methyl)amino]methyl}phenyl)-6-fluoro-4-oxo-3,4-dihydroquinazolin-3-yl]-N-hydroxy-2-methanesulfonyl-2-methylbutanamide], the MIC in assay [1] (setting [4]) was under 0.03 µg/mL; in assay [2] (setting [5]), 0.25 µg/mL (≈ 0.484 µM); in assay [3] (setting [6]), 8 µg/mL (≈ 15.5 µM).
Turning to `COCCN(C)Cc1ccc(-c2cc3ncn(CC[C@](C)(C(=O)NO)S(C)(=O)=O)c(=O)c3cc2F)c(F)c1` [Example 23, (2R)-4-[6-fluoro-7-(2-fluoro-4-{[(2-methoxyethyl)(methyl)amino]methyl}phenyl)-4-oxo-3,4-dihydroquinazolin-3-yl]-N-hydroxy-2-methanesulfonyl-2-methylbutanamide], the MIC in assay [1] (setting [4]) is 0.25 µg/mL (≈ 0.452 µM); in assay [2] (setting [5]), 0.5 µg/mL (≈ 0.905 µM); in assay [3] (setting [6]) it was 4 µg/mL (≈ 7.24 µM).
For the compound `COC1CN(CCc2ccc(-c3cc4ncn(CC[C@](C)(C(=O)NO)S(C)(=O)=O)c(=O)c4cc3F)c(F)c2F)C1` [Example 24, (2R)-4-(7-{2,3-difluoro-4-[2-(3-methoxyazetidin-1-yl)ethyl]phenyl}-6-fluoro-4-oxo-3,4-dihydroquinazolin-3-yl)-N-hydroxy-2-methanesulfonyl-2-methylbutanamide], the MIC in assay [1] (setting [4]) turned out to be 0.25 µg/mL (≈ 0.429 µM); in assay [2] (setting [5]), 1 µg/mL (≈ 1.72 µM); in assay [3] (setting [6]) it was 2 µg/mL (≈ 3.43 µM).
As for `C[C@@](CCn1cnc2cc(-c3ccc(CNC4CC4)cc3F)c(F)cc2c1=O)(C(=O)NO)S(C)(=O)=O` [Example 25, (2R)-4-(7-{4-[(cyclopropylamino)methyl]-2-fluorophenyl}-6-fluoro-4-oxo-3,4-dihydroquinazolin-3-yl)-N-hydroxy-2-methanesulfonyl-2-methylbutanamide], the MIC in assay [1] (setting [4]) was 0.063 µg/mL (≈ 0.121 µM); in assay [2] (setting [5]) it was 0.5 µg/mL (≈ 0.961 µM); in assay [3] (setting [6]), 1 µg/mL (≈ 1.92 µM).
As for `C[C@@](CCn1cnc2cc(-c3ccc(CN4CCOCC4)cc3F)c(F)cc2c1=O)(C(=O)NO)S(C)(=O)=O` [Example 26, (2R)-4-(6-fluoro-7-{2-fluoro-4-[(morpholin-4-yl)methyl]phenyl}4-oxo-3,4-dihydroquinazolin-3-yl)-N-hydroxy-2-methanesulfonyl-2-methylbutanamide], the values for the MIC in assay [1] (setting [4]), in assay [2] (setting [5]) and in assay [3] (setting [6]) were 0.125 µg/mL (≈ 0.227 µM), 0.5 µg/mL (≈ 0.908 µM) and 4 µg/mL (≈ 7.27 µM), respectively.
The like results for `C[C@@](CCn1cnc2cc(-c3ccc(CCO)cc3F)c(F)cc2c1=O)(C(=O)NO)S(C)(=O)=O` [Example 27, (2R)-4-{6-fluoro-7-[2-fluoro-4-(2-hydroxyethyl)phenyl]-4-oxo-3,4-dihydroquinazolin-3-yl}-N-hydroxy-2-methanesulfonyl-2-methylbutanamide] were, in that order, under 0.03 µg/mL, 1 µg/mL (≈ 2.02 µM) and 2 µg/mL (≈ 4.04 µM).
